Test results taken from the supplement of paper PMC10307832.

How the values were obtained:
Test in all cases: relative viability (nuclei count vs DMSO), 5 days (fraction); higher = more cells survive
R406 + Foretinib = compound: COc1cc(Nc2ncc(F)c(Nc3ccc4c(n3)NC(=O)C(C)(C)O4)n2)cc(OC)c1OC [R406] + COc1cc2c(Oc3ccc(NC(=O)C4(C(=O)Nc5ccc(F)cc5)CC4)cc3F)ccnc2cc1OCCCN1CCOCC1 [Foretinib] (partner 0.25 µM)
Procedure, shortened: (§1)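 Nuclei were stained with Hoechst during a one-step fixation (final 0.05% Triton X-100, 1% formaldehyde, 1 ug/ml Hoechst) carried out 5 days after dosing, then counted on 4× images. The cells, lung cancer lines in 1536-well plates, had been dosed by pin tool the day after seeding with one drug alone or a fixed anchor-drug dose plus five library-drug doses (not always all listed) in √10 steps. Relative viability is the nuclei count in treated wells divided by that in vehicle wells, and each value is the median of duplicate plates.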

Daporinad + Lapatinib = compound: O=C(/C=C/c1cccnc1)NCCCCC1CCN(C(=O)c2ccccc2)CC1 [Daporinad] + CS(=O)(=O)CCNCc1ccc(-c2ccc3ncnc(Nc4ccc(OCc5cccc(F)c5)c(Cl)c4)c3c2)o1 [Lapatinib] (partner 2 µM)
Procedure, shortened: as §1

Daporinad + OSI-027 = compound: O=C(/C=C/c1cccnc1)NCCCCC1CCN(C(=O)c2ccccc2)CC1 [Daporinad] + COc1cccc2cc(-c3nc([C@H]4CC[C@H](C(=O)O)CC4)n4ncnc(N)c34)[nH]c12 [OSI-027] (partner 0.5 µM)
Procedure, shortened: as §1

Daporinad + Pemetrexed = compound: O=C(/C=C/c1cccnc1)NCCCCC1CCN(C(=O)c2ccccc2)CC1 [Daporinad] + Nc1nc2[nH]cc(CCc3ccc(C(=O)N[C@@H](CCC(=O)O)C(=O)O)cc3)c2c(=O)[nH]1 [Pemetrexed] (partner 0.2 µM)
Procedure, shortened: as §1

| Cell Line | relative viability (R406 + Foretinib; first compound 0.08 µM) | relative viability (R406 + Foretinib; first compound 0.253 µM) | relative viability (R406 + Foretinib; first compound 0.8 µM) | relative viability (R406 + Foretinib; first compound 2.53 µM) | relative viability (R406 + Foretinib; first compound 8 µM) | relative viability (Daporinad + Lapatinib; first compound 0.0005 µM) | relative viability (Daporinad + Lapatinib; first compound 0.001581 µM) | relative viability (Daporinad + Lapatinib; first compound 0.005 µM) | relative viability (Daporinad + Lapatinib; first compound 0.01581 µM) | relative viability (Daporinad + OSI-027; first compound 0.0005 µM) | relative viability (Daporinad + OSI-027; first compound 0.001581 µM) | relative viability (Daporinad + OSI-027; first compound 0.005 µM) | relative viability (Daporinad + OSI-027; first compound 0.01581 µM) | relative viability (Daporinad + Pemetrexed; first compound 0.0005 µM) | relative viability (Daporinad + Pemetrexed; first compound 0.001581 µM) | relative viability (Daporinad + Pemetrexed; first compound 0.005 µM) | relative viability (Daporinad + Pemetrexed; first compound 0.01581 µM) |
| --- | --- | --- | --- | --- | --- | --- | --- | --- | --- | --- | --- | --- | --- | --- | --- | --- | --- |
| NCI-H520 | 0.831 | 1 | 0.883 | 0.293 | 0.421 | 0.976 | 0.54 | 0.224 | 0.149 | 0.245 | 0.222 | 0.328 | 0.234 | 0.67 | 0.395 | 0.239 | 0.149 |
| NCI-H596 | 0.926 | 1 | 0.957 | 0.726 | 0.162 | 0.941 | 1.22 | 1.08 | 0.544 | 0.553 | 0.674 | 0.758 | 0.656 | 0.432 | 0.457 | 0.525 | 0.36 |
| NCI-H647 | 1.24 | 1.2 | 1.15 | 0.917 | 1.05 | 1.13 | 1.34 | 1.19 | 1.01 | 0.583 | 0.598 | 0.647 | 0.735 | 0.193 | 0.191 | 0.173 | 0.21 |
| NCI-H650 | 0.968 | 1.17 | 1.03 | 0.914 | 0.864 | 0.889 | 1.25 | 1.19 | 1.31 | 0.477 | 0.415 | 0.525 | 0.626 | 0.903 | 0.949 | 1.02 | 1.16 |
| NCI-H661 | 0.895 | 1.04 | 0.988 | 1 | 0.76 | 0.374 | 0.443 | 0.403 | 0.402 | 0.811 | 0.719 | 0.74 | 0.341 | 0.959 | 0.791 | 0.652 | 0.51 |
| NCI-H838 | 0.984 | 1.17 | 1.09 | 0.645 | 0.791 | 0.998 | 1.31 | 0.966 | 0.5 | 0.415 | 0.465 | 0.475 | 0.555 | 0.249 | 0.262 | 0.172 | 0.179 |
| NCI-H1355 | 0.973 | 1.09 | 1.15 | 0.833 | 0.691 | 0.956 | 1.09 | 0.995 | 0.873 | 0.375 | 0.433 | 0.471 | 0.548 | 1 | 1.1 | 1.03 | 0.873 |
| NCI-H1395 | 1.03 | 1.22 | 1.03 | 0.736 | 0.632 | 0.885 | 1.12 | 0.977 | 1.23 | 0.644 | 0.64 | 0.71 | 0.739 | 0.839 | 1.05 | 0.896 | 0.927 |
| NCI-H1437 | 1.22 | 1.3 | 1.26 | 1.27 | 1.34 | 0.704 | 0.879 | 0.867 | 0.85 | 0.851 | 0.885 | 0.885 | 0.882 | 0.312 | 0.313 | 0.316 | 0.332 |
| NCI-H1563 | 0.777 | 1 | 0.939 | 0.82 | 0.624 | 1.1 | 1.07 | 0.844 | 0.862 | 0.754 | 0.749 | 0.807 | 0.719 | 0.722 | 0.655 | 0.873 | 0.641 |
| NCI-H1650 | 1.28 | 1.23 | 1 | 0.723 | 0.117 | 0.792 | 0.922 | 0.95 | 0.875 | 0.637 | 0.655 | 0.733 | 0.825 | 0.426 | 0.395 | 0.458 | 0.391 |
| NCI-H1651 | 0.875 | 0.83 | 0.939 | 0.596 | 0.679 | 0.803 | 1.09 | 0.796 | 0.984 | 0.747 | 0.767 | 0.744 | 0.604 | 0.602 | 0.557 | 0.659 | 0.545 |
| NCI-H1666 | 0.926 | 1.07 | 0.977 | 0.869 | 0.59 | 0.612 | 0.633 | 0.739 | 0.752 | 0.822 | 0.989 | 0.826 | 0.896 | 0.902 | 0.839 | 0.862 | 0.806 |
| NCI-H1734 | 0.812 | 1.07 | 0.997 | 0.52 | 0.448 | 1.05 | 1.08 | 0.986 | 0.65 | 0.569 | 0.676 | 0.674 | 0.527 | 0.473 | 0.422 | 0.425 | 0.353 |
| NCI-H1755 | 0.923 | 0.946 | 0.894 | 0.677 | 0.598 | 1 | 1.03 | 1.06 | 1.07 | 0.628 | 0.758 | 0.761 | 0.778 | 0.421 | 0.397 | 0.454 | 0.469 |
| NCI-H1793 | 0.582 | 0.641 | 0.809 | 0.464 | 0.139 | 0.337 | 0.935 | 0.535 | 0.805 | 0.25 | 0.252 | 0.343 | 0.254 | 0.727 | 1.03 | 1 | 1.05 |
| NCI-H1915 | 0.983 | 1.16 | 1.11 |  | 0.989 | 0.983 | 1.03 | 1.03 | 0.969 | 0.613 | 0.641 | 0.719 | 0.712 | 0.474 | 0.505 | 0.499 | 0.174 |
